The values below come from patent US20230085307A1, “PYRIDAZINONE COMPOUND AND HERBICIDE” (NISSAN CHEMICAL CORPORATION, priority 2019, published 2023).

The subject of one test is green foxtail. In words: Test Example 4: herbicidal effect by soil treatment (Table 19, symbol G). Type of test: in vivo, green foxtail (Setaria viridis). As to conditions: amount of applied herbicide 320 g/ha. The method in brief:
(§1)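 Three weeks of greenhouse growth at 25° C. to 30° C. followed a uniform surface spray of water-diluted emulsion at a predetermined herbicide amount. Seeds had been sown beforehand under about 1.5 cm of sterilized diluvial soil. Grading followed criteria set out in an earlier test.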

A further test has as its system lambsquarters. Kind of test: Test Example 4: herbicidal effect by soil treatment (Table 19, symbol O). Format: in vivo, lambsquarters (Chenopodium album). The conditions noted are these: amount of applied herbicide 320 g/ha. The method in brief: as §1
Test [1] relates to velvetleaf. Kind of test: Test Example 5: herbicidal effect by foliage application, plastic box (Table 20, symbol M). Type of test: in vivo, velvetleaf (Abutilon theophrasti). As to conditions: foliage application, 320 g/ha, three weeks after application. The method in brief:
(§2)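 Plants sown in sterilized diluvial soil and grown 14 days in a greenhouse at 25° C to 30° C, then sprayed on the foliage with the compound's emulsion diluted in water to a predetermined herbicide amount. Injury to weeds and crops scored three weeks after application on a visual rating scale.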

Test [2] deals with Italian ryegrass. Kind of test: Test Example 4: herbicidal effect by soil treatment (Table 19, symbol K). Type of test: in vivo, Italian ryegrass (Lolium multiflorum). The conditions noted are these: amount of applied herbicide 320 g/ha. The method in brief:
as §1

For a further test, the system named is oval-leafed pondweed. Kind of test: Test Example 2: herbicidal activity, application during weed generation under submerged conditions (Table 17, symbol C). Format: in vivo, oval-leafed pondweed (Monochoria vaginalis). The conditions noted are these: AAH 320 g/ha; application during weed generation, submerged conditions. The method in brief:
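Herbicide emulsion, diluted with water to the chosen amount, is applied onto 4 cm floodwater over alluvial soil where the weeds were co-sown and raised at 25–30° C. Application timing: 1–2 leaves. Assessment: three weeks afterwards.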

The subject of a further test is wild oat. Kind of test: Test Example 4: herbicidal effect by soil treatment (Table 19, symbol I). Type of test: in vivo, wild oat (Avena fatua). As to conditions: amount of applied herbicide 320 g/ha. The method in brief: as §1
The subject of a further test is barnyard grass. In words: Test Example 5: herbicidal effect by foliage application, plastic box (Table 20, symbol H). Type of test: in vivo, barnyard grass (Echinochloa crus-galli). The conditions noted are these: foliage application, 320 g/ha, three weeks after application. The method in brief:
as §2

The test system of the next test is persian speedwell. In words: Test Example 4: herbicidal effect by soil treatment (Table 19, symbol R). Format: in vivo, Persian speedwell (Veronica persica). As to conditions: amount of applied herbicide 320 g/ha. The method in brief: as §1
Test [3] deals with windgrass. In words: Test Example 5: herbicidal effect by foliage application, plastic box (Table 20, symbol L). Type of test: in vivo, windgrass (Apera spica-venti). As to conditions: foliage application, 320 g/ha, three weeks after application. The method in brief:
as §2

Test [4] deals with Italian ryegrass. Kind of test: Test Example 5: herbicidal effect by foliage application, plastic box (Table 20, symbol K). Type of test: in vivo, Italian ryegrass (Lolium multiflorum). The conditions noted are these: foliage application, 320 g/ha, three weeks after application. The method in brief:
as §2

Another test has as its system rice flat sedge. In words: Test Example 3: herbicidal effect by foliage application, Wagner pot (Table 18, symbol E). Type of test: in vivo, rice flat sedge (Cyperus iria). As to conditions: amount of applied herbicide 320 g/ha. The method in brief: (§3)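 Plants were sown in alluvial soil held under 0.1–0.5 cm standing water and grown 14 days in a greenhouse at 25–30 °C. An emulsifiable formulation, water-diluted to the set dose, was then sprayed onto the foliage, and effects were scored three weeks later using previously defined criteria.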

In test [5] the test system is windgrass. Kind of test: Test Example 4: herbicidal effect by soil treatment (Table 19, symbol L). The conditions noted are these: amount of applied herbicide 320 g/ha. Format: in vivo, windgrass (Apera spica-venti). The method in brief: as §1
A further test has as its system Chinese sprangletop. Kind of test: Test Example 3: herbicidal effect by foliage application, Wagner pot (Table 18, symbol D). Format: in vivo, chinese sprangletop (Leptochloa chinensis). As to conditions: amount of applied herbicide 320 g/ha. The method in brief: as §3
Test [6] concerns velvetleaf. Kind of test: Test Example 4: herbicidal effect by soil treatment (Table 19, symbol M). Type of test: in vivo, velvetleaf (Abutilon theophrasti). The conditions noted are these: amount of applied herbicide 320 g/ha. The method in brief:
as §1

A further test concerns late watergrass. Kind of test: Test Example 1: herbicidal activity, application before weed generation under submerged conditions (Table 16, symbol A). As to conditions: amount of applied herbicide 320 g/ha. Type of test: in vivo, late watergrass (Echinochloa oryzicola). The method in brief: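 Submerged Wagner pots (alluvial soil, 4 cm water) sown with weed seeds and planted with 2.5-leaf rice seedlings; emulsifiable concentrate diluted in water applied to water surface on sowing day. Held in greenhouse at 25-30 °C; injury scored 0-5 by herbicidal rate after three weeks.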

As for `Cc1ccc2oc(-c3ccc4c(c3)OCCO4)c(-c3c(O)c(C)nn(C)c3=O)c2c1` [9-012], the “G: green foxtail, herbicidal effect grade” value with green foxtail was 3 (Herbicidal rate of 40% or more and less than 70%). Besides, the “O: lambsquarters, herbicidal effect grade” value in the test with lambsquarters is 3 (Herbicidal rate of 40% or more and less than 70%). The “herbicidal effect on velvetleaf (M)” value with velvetleaf [1] is given as 5 (Herbicidal rate of 90% or more (almost completely withered)). Besides, the “K: Italian ryegrass, herbicidal effect grade” value in the test on Italian ryegrass [2] was 4 (Herbicidal rate of 70% or more and less than 90%). Further, the “herbicidal effect rating, C: oval-leafed pondweed” value in the test with oval-leafed pondweed is given as 5 (Herbicidal rate of 90% or more (almost completely withered)). Moreover, in the test on wild oat, the “I: wild oat, herbicidal effect grade” value was 0 (Herbicidal rate of 5% or less (almost no effect)). Also, in the test on barnyard grass, the “herbicidal effect on barnyard grass (H)” value is 3 (Herbicidal rate of 40% or more and less than 70%). Further, in the test with persian speedwell, the “R: persian speedwell, herbicidal effect grade” value is 4 (Herbicidal rate of 70% or more and less than 90%). In addition, in the test with windgrass [3], the “herbicidal effect on windgrass (L)” value was 2 (Herbicidal rate of 20% or more and less than 40%). In the test on Italian ryegrass [4], the “herbicidal effect on Italian ryegrass (K)” value is recorded as 5 (Herbicidal rate of 90% or more (almost completely withered)). For the same molecule, the “Herbicidal effect on E (rice flat sedge), foliage application” value in the test with rice flat sedge is 5 (Herbicidal rate of 90% or more (almost completely withered)). Further, the “L: windgrass, herbicidal effect grade” value with windgrass [5] was 0 (Herbicidal rate of 5% or less (almost no effect)). Moreover, in the test with Chinese sprangletop, the “Herbicidal effect on D (Chinese sprangletop), foliage application” value was 0 (Herbicidal rate of 5% or less (almost no effect)). In the test with velvetleaf [6], the “M: velvetleaf, herbicidal effect grade” value was 2 (Herbicidal rate of 20% or more and less than 40%). Also, the “Herbicidal effect, A: late watergrass” value in the test on late watergrass is 4 (Herbicidal rate of 70% or more and less than 90%).
For the molecule `CCCOc1ccc(-c2oc3ccccc3c2-c2c(O)c(C)nn(C)c2=O)cc1` [8-003], the “G: green foxtail, herbicidal effect grade” value in the test with green foxtail was 2 (Herbicidal rate of 20% or more and less than 40%). Moreover, the “O: lambsquarters, herbicidal effect grade” value in the test with lambsquarters was 3 (Herbicidal rate of 40% or more and less than 70%). Moreover, the “herbicidal effect on velvetleaf (M)” value in the test on velvetleaf [1] is recorded as 5 (Herbicidal rate of 90% or more (almost completely withered)). For the same molecule, in the test on Italian ryegrass [2], the “K: Italian ryegrass, herbicidal effect grade” value was 4 (Herbicidal rate of 70% or more and less than 90%). Moreover, the “herbicidal effect rating, C: oval-leafed pondweed” value in the test on oval-leafed pondweed was 3 (Herbicidal rate of 40% or more and less than 70%). The “I: wild oat, herbicidal effect grade” value in the test with wild oat was 0 (Herbicidal rate of 5% or less (almost no effect)). Moreover, the “herbicidal effect on barnyard grass (H)” value in the test with barnyard grass was 5 (Herbicidal rate of 90% or more (almost completely withered)). Further, the “R: persian speedwell, herbicidal effect grade” value with persian speedwell is 4 (Herbicidal rate of 70% or more and less than 90%). For the same molecule, the “herbicidal effect on windgrass (L)” value in the test with windgrass [3] was 0 (Herbicidal rate of 5% or less (almost no effect)). For the same molecule, the “herbicidal effect on Italian ryegrass (K)” value with Italian ryegrass [4] is 4 (Herbicidal rate of 70% or more and less than 90%). Further, in the test on rice flat sedge, the “Herbicidal effect on E (rice flat sedge), foliage application” value was 4 (Herbicidal rate of 70% or more and less than 90%). For the same molecule, the “L: windgrass, herbicidal effect grade” value in the test on windgrass [5] is given as 0 (Herbicidal rate of 5% or less (almost no effect)). For the same molecule, in the test with Chinese sprangletop, the “Herbicidal effect on D (Chinese sprangletop), foliage application” value is 3 (Herbicidal rate of 40% or more and less than 70%). For the same molecule, the “M: velvetleaf, herbicidal effect grade” value in the test on velvetleaf [6] is 1 (Herbicidal rate of 5% or more and less than 20%). Further, the “Herbicidal effect, A: late watergrass” value with late watergrass was 5 (Herbicidal rate of 90% or more (almost completely withered)).
